Reference: patent publication US10710988B2, “Piperazine derivative” (Astellas Pharma Inc., priority 2016, dated 2020)

Biological target: T1, human MC3 receptor (Homo sapiens, UniProt P41968)
T1 construct: expressed in transfected cells; host or cells: FreeStyle 293-F cells (transient, electroporation)
Assay: Human MC3 receptor activation, cAMP production in cells transiently expressing the receptor
Format: cell-based
Details: FreeStyle 293-F cells expressing human MC3 receptor, α-MSH maximum = 100%
Text: (1) Construction of Human MC Receptor-Expressing Vector
A human MC4 receptor gene (GenBank Accession No.: NM_005912.2), a human MC1 receptor gene (GenBank Accession No.: NM_002386.3), or a human MC3 receptor gene (GenBank Accession No.: NM_019888.3) was introduced into an expression vector pcDNA™ 3.1N/V5-His TOPO (registered trademark) (Thermo Fisher Scientific Inc).
(2) Construction of Cells Transiently Expressing Human MC Receptor
An expression vector for a human MC4, MC1, or MC3 receptor was introduced into FreeStyle™ 293-F cells (Thermo Fisher Scientific Inc., product number: R790-07). For the introduction, electroporation was employed. That is, 1×10^7 FreeStyle™ 293-F cells were suspended in 80 μL of an Electroporation Buffer (Thermo Fisher Scientific Inc., product number: B201-100), and 20 μg of the expression vector was added thereto. The resultant was put into a cuvette (OC-100 Processing Assembly, MaxCyte, Inc.) and electroporated with MaxCyte STX (registered trademark) (MaxCyte, Inc.). The cells were cultured for a day, suspended in a Cell Banker (registered trademark) 1 (TAKARA BIO INC. or JUJI FIELD Inc., product number: BLC-1), and stored frozen until they were used.
(3) Measurement of Amount of cAMP Production
Measurement was carried out by using a LANCE (registered trademark) Ultra cAMP Kit (PerkinElmer, Inc.) in accordance with the attached instructions. That is, after dissolution in DMSO, the test compound (a final concentration of 1 pM to 30 μM) diluted with an assay buffer (Hank's balanced salt solution, 5 mM 4-(2-hydroxyethyl)-1-piperazineethanesulfonic acid (HEPES), 0.5 mM 3-isobutyl-1-methylxanthine (IBMX), 0.1% bovine serum albumin, pH 7.4), or α-MSH (Bachem Inc., a final concentration of 1 pM to 30 μM) was added to OptiPlate-384 (PerkinElmer, Inc.). Furthermore, the suspension of the cells transiently expressing the human MC4, MC1, or MC3 receptor prepared using the assay buffer was added thereto at 1,000 cells/well, and then left to stand at room temperature for about 1 hour. Thereafter, an Eu-cAMP tracer solution and an ULight™-anti-cAMP solution were added thereto, and then the resulting solution was left to stand at room temperature for about 1 hour. The amount of cAMP was calculated using EnVision (registered trademark) (PerkinElmer Inc.).
For the agonistic activity, the efficacy (EC50 (μM)) was calculated by a non-linear regression method with a Sigmoid-Emax model, by defining the maximum reaction using α-MSH as 100% and the reaction using the vehicle alone as 0%, respectively.

T1 sequence (P41968 whole entry): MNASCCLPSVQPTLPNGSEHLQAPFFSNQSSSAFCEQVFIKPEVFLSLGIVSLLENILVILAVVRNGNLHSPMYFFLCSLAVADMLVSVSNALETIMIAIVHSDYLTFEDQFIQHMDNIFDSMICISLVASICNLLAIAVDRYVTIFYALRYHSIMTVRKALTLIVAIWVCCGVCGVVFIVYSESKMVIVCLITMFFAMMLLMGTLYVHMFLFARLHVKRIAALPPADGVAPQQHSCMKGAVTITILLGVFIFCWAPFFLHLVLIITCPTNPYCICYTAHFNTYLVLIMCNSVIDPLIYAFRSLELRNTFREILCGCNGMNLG

| EC50 [nM] | Compound |
| --- | --- |
| 1000 | CC(=O)N[C@@H](CC(C)(C)C)C(=O)N1CCN(C(=O)[C@@H]2CN(C(C)(C)C)C[C@H]2c2ccc(F)cc2F)[C@@H](C)C1.Cl [Example 8] |
| 890 | CC(=O)N[C@@H](CC(C)(C)C)C(=O)N1C[C@H](C)N(C(=O)C2CN(C(C)(C)C)CC2c2ccc(F)cc2)C[C@H]1C.Cl (some centres unmarked) [Example 11] |

Second part, the compound before the results:

| Compound | EC50 [nM] |
| --- | --- |
| CC(=O)N[C@@H](CC(C)(C)C)C(=O)N1C[C@H](C)N(C(=O)[C@@H]2CN(C(C)(C)C)C[C@H]2c2ccc(F)cc2F)C[C@H]1C.Cl [Example 4, N-{(2S)-1-[(2R,5S)-4-{[(3 S,4R)-1-tert-butyl-4-(2,4-difluorophenyl)pyrrolidin-3-yl]carbonyl}-2,5-dimethylpiperazin-1-yl]-4,4-dimethyl-1-oxopentan-2-yl}acetamide monohydrochloride] | 270 |
| CC(=O)N[C@@H](CC(C)C)C(=O)N1CCN(C(=O)[C@@H]2CN(C(C)(C)C)C[C@H]2c2ccc(Cl)cc2F)C[C@H]1C [Example 5] | 550 |
| CC(=O)N[C@H](C(=O)N1CCN(C(=O)[C@@H]2CN(C(C)(C)C)C[C@H]2c2ccc(F)cc2F)[C@@H](C)C1)C1CCCCC1.Cl [Example 6, N-{(1S)-2-[(3S)-4-{[(3S,4R)-1-tert-butyl-4-(2,4-difluorophenyl)pyrrolidin-3-yl]carbonyl}-3-methylpiperazin-1-yl]-1-cyclohexyl-2-oxoethyl}acetamide monohydrochloride] | 1800 |
